Assay results as given in ChEMBL document CHEMBL1201862, “PubChem BioAssay data set” (2004).
Calls of active or inactive are those of the source.

Columns and labels:
Cytochrome P450 3A4 = Cytochrome P450 3A4 (Homo sapiens, UniProt P08684);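 further: CYP3A4 tested as one member of a cytochrome P450 panel screen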
Cytochrome P450 2C9 = Cytochrome P450 2C9 (Homo sapiens, UniProt P11712)
cells [1] = format: functional, cell-based
cells [2] = format: functional, cell-based; remark: listed apart in the source
INS1 = assay: INS-1E survival protection against cytokine death – cell-based, luminescence, retest, dose response (AID 449756); format: functional; details: Rattus norvegicus;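 further: cell death triggered by IL-1 beta plus TNF-alpha plus IFN-gamma mixture; protective hits raise ATP signal compared with cytokine alone wells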
Aminopeptidase N = molecular target: T1, Aminopeptidase N (Plasmodium falciparum FcB1/Columbia, UniProt O96935); assay: malaria alanyl aminopeptidase activity blockers – biochemical, fluorogenic H-Leu-NHMec substrate, 1536-well (AID 1445); set-up: species or system Plasmodium falciparum 3D7, 3D7
T1 sequence (O96935 whole entry): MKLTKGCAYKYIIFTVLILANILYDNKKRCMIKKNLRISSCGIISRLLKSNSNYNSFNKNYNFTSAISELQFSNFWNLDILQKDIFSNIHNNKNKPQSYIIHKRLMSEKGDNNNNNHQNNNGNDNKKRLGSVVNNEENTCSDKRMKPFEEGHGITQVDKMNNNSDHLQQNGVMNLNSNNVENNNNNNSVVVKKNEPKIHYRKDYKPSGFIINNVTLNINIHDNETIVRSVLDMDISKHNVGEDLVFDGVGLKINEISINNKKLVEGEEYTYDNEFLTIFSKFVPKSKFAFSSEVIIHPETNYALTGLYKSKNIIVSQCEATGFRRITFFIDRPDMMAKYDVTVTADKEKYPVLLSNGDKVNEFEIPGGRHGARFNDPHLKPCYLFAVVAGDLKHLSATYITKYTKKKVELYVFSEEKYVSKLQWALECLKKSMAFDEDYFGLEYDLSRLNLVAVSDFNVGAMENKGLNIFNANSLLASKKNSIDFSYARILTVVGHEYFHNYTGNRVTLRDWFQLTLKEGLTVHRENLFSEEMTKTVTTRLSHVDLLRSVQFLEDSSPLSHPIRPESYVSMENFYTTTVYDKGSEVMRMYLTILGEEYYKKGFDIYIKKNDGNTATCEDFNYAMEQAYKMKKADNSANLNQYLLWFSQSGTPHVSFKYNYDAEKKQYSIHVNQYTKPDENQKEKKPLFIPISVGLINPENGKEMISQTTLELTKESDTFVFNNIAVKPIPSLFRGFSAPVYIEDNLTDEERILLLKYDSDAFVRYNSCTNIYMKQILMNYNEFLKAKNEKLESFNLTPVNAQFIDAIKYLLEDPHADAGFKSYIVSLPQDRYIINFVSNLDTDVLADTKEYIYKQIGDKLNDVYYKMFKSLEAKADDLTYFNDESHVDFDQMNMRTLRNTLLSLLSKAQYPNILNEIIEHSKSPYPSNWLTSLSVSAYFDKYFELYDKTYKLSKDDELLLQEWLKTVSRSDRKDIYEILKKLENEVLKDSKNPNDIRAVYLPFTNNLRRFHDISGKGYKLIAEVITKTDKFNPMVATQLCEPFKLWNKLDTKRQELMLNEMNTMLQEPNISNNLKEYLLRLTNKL

Bcl-2-like protein 10 = molecular target: T2, Bcl-2-like protein 10 (Homo sapiens, UniProt Q9HD36); assay: Bcl-B/TR3 peptide binding disruption – biochemical, fluorescence polarization, FITC-TR3 peptide, selectivity assay for Bfl-1 inhibitor project, primary screen (AID 748);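 further: fluorescence polarization from a fluorescein-labelled TR3 peptide binding purified Bcl-B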
T2 sequence (Q9HD36 whole entry): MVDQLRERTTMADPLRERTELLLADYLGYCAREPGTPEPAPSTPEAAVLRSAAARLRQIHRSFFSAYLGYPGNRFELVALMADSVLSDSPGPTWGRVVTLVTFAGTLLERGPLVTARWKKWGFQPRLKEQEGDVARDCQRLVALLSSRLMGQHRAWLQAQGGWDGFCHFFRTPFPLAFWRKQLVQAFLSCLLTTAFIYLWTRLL

Cytochrome P450 1A2 = molecular target: T3, Cytochrome P450 1A2 (Homo sapiens, UniProt P05177);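 further: PubChem cytochrome P450 panel assay, CYP1A2 panel member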
T3 sequence (P05177 whole entry): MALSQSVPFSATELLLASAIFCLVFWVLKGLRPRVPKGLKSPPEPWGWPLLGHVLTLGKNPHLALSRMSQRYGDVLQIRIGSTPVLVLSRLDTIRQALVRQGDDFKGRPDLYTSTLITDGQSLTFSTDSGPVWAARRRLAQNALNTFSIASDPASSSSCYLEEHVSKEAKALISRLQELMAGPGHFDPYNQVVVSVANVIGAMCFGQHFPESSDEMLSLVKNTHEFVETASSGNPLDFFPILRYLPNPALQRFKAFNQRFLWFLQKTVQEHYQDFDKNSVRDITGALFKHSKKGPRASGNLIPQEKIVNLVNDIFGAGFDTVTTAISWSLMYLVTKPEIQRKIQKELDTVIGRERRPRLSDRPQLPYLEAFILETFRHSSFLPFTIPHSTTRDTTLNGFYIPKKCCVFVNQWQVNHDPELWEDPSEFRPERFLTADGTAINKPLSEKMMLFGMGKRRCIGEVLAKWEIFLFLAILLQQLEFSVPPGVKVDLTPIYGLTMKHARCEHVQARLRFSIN

Cytochrome P450 2C19 = Cytochrome P450 2C19 (Homo sapiens, UniProt P33261); assay: Cytochrome panel assay with activity outcomes. Panel member name: p450-cyp2c19 Compounds with AC50 equal or less than 10 uM are considered active; format: functional; details: read-out: AC50
[3] = molecular target: Glucose-6-phosphate 1-dehydrogenase (Homo sapiens, UniProt P11413); assay: inhibition of Homo sapiens G6PD, dose series – biochemical, fluorescence, selectivity assay for P. falciparum G6PD inhibitor project, dose response (AID 504792); format: functional
[4] = molecular target: T4, Short transient receptor potential channel 4 (Mus musculus, UniProt Q9QUQ5); assay: block of DAMGO-driven TRPC4 calcium entry – cell-based, HEK293 TRPC4/mu-opioid, Fluo-4 calcium, dose response (AID 434942); format: functional;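 further: potency of inhibitors blocking the TRPC4 calcium response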
T4 sequence (Q9QUQ5 whole entry): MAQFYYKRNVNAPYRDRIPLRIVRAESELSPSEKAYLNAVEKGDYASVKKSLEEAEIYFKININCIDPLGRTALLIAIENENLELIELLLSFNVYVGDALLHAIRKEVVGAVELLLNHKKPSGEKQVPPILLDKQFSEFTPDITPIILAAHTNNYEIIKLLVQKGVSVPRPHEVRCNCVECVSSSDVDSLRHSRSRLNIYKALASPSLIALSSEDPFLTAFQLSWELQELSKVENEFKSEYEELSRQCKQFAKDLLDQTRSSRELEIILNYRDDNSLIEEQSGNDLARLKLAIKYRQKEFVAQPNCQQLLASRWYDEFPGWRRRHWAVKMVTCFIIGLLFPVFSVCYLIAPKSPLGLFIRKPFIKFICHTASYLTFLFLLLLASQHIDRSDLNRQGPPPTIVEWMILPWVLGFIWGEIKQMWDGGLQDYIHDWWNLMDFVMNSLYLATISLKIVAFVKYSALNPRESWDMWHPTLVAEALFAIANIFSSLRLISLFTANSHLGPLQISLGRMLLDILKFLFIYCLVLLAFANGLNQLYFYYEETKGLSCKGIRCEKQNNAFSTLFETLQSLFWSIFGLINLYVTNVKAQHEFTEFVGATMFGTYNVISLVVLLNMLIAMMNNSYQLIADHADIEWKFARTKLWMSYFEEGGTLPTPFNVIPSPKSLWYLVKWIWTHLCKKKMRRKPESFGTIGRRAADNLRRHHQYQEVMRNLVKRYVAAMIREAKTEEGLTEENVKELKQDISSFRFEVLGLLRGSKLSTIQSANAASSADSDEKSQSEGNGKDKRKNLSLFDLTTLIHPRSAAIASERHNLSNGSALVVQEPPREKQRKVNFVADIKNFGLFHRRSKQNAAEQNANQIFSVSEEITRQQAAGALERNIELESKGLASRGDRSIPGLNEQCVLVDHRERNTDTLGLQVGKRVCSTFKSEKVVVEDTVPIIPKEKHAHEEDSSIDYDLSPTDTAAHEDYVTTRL

[5] = molecular target: T4, Short transient receptor potential channel 4; assay: calcium entry via TRPC4 opening agents – cell-based, HEK293 TRPC4/mu-opioid, Fluo-4 calcium, dose response (AID 434937); format: functional
[6] = fluconazole-exposed Candida albicans growth modulators – fluorescence, retest, confirmation (AID 2467); format: functional, cell-based
[7] = molecular target: T5, Histone-lysine N-methyltransferase NSD2 (Homo sapiens, UniProt O96028); format: biochemical
T5 sequence (O96028 whole entry): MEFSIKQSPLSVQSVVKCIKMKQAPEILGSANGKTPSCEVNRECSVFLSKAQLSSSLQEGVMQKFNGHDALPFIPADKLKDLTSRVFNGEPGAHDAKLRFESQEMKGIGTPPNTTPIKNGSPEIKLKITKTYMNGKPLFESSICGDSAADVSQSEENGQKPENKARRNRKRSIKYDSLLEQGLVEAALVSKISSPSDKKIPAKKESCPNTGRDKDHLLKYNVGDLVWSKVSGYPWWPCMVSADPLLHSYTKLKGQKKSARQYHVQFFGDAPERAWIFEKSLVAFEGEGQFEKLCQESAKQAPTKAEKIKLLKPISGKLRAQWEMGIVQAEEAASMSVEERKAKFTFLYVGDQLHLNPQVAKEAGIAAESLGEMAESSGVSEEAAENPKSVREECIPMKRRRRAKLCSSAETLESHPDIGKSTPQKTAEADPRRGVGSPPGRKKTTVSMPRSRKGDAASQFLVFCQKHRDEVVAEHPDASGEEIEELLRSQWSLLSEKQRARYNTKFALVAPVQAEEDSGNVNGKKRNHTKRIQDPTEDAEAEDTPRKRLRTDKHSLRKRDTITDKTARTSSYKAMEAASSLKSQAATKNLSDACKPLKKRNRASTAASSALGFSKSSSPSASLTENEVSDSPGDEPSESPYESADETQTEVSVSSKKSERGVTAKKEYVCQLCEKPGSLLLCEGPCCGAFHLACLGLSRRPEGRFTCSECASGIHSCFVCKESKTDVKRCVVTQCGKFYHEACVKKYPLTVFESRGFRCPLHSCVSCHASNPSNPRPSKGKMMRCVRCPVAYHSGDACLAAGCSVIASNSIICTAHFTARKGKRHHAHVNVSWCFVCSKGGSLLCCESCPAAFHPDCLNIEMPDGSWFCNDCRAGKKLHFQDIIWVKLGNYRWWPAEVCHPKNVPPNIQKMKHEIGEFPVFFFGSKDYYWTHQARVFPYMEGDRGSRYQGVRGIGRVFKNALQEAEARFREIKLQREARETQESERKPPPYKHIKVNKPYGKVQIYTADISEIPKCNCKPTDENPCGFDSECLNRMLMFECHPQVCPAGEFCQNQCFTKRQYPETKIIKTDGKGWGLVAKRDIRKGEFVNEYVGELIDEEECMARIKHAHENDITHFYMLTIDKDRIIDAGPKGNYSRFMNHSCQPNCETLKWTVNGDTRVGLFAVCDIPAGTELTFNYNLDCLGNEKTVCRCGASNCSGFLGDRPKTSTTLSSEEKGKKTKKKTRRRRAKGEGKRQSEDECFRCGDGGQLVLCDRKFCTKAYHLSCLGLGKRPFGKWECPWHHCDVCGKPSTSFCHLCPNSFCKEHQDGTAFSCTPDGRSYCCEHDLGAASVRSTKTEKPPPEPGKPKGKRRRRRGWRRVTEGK

[8] = NIH-3T3 fibroblast cytotoxicity, dose response, cytotoxicity control, cell-based, fluorescence, Alamar Blue, secondary assay (AID 2327); format: functional;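 further: NIH-3T3 mouse fibroblasts cultured with fluconazole at 8 µg/mL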

Chain of Glucose-6-phosphate 1-dehydrogenase (P11413 whole entry): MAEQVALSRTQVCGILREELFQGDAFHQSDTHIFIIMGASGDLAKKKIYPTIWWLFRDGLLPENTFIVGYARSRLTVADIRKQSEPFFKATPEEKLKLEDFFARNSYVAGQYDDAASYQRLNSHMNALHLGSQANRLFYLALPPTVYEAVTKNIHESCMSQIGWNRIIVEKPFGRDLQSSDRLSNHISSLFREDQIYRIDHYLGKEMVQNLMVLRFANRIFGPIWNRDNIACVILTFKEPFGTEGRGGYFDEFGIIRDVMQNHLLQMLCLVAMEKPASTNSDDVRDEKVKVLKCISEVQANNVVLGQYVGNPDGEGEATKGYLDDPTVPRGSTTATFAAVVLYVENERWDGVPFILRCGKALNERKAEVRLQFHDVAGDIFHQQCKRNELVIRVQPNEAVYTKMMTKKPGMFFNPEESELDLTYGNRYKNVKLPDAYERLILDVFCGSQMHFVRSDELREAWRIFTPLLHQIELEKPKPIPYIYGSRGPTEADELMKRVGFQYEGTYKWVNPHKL
Chain of Cytochrome P450 2C9 (P11712 whole entry): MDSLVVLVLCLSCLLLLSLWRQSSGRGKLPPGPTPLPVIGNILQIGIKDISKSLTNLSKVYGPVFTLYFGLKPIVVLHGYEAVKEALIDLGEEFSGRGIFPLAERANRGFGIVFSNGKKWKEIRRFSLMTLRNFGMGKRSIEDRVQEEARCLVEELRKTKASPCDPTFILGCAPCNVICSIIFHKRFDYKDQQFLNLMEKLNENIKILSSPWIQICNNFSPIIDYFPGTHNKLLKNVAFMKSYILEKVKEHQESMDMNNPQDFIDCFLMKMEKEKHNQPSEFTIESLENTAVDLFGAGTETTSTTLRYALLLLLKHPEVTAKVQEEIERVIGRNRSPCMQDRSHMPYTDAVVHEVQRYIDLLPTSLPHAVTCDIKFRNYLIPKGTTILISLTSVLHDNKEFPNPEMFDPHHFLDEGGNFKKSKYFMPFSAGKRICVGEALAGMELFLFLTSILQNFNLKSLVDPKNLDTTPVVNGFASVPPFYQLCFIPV
Chain of Cytochrome P450 2C19 (P33261 whole entry): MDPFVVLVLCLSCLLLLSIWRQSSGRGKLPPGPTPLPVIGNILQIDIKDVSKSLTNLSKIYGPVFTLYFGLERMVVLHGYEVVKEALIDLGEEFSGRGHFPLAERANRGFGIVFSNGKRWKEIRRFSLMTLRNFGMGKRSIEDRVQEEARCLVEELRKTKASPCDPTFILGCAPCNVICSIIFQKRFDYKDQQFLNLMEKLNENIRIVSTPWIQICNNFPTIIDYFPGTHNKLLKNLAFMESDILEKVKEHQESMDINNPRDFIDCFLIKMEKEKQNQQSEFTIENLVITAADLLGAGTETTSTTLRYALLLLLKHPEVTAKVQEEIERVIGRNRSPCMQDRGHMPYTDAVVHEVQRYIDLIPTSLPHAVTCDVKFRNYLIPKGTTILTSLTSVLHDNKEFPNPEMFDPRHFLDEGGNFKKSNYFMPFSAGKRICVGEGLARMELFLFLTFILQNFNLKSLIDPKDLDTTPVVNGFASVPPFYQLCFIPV
Chain of Cytochrome P450 3A4 (P08684 whole entry): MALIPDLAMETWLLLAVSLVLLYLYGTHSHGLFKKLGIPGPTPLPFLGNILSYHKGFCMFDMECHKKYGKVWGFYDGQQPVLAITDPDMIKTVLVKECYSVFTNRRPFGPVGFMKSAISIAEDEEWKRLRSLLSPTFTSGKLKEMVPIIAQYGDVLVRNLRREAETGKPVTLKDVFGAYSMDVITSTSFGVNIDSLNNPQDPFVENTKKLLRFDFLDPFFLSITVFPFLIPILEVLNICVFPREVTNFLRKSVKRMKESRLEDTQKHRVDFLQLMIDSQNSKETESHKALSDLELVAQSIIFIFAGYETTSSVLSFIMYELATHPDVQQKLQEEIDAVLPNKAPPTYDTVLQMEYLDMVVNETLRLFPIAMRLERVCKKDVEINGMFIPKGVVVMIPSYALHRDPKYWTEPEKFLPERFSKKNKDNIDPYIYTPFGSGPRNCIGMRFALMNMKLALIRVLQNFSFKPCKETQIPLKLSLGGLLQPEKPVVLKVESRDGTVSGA

Oc1ccc2oc3c(c2c1)CCCC3
AC50 (Cytochrome P450 3A4): 22.4 µM (inconclusive)
AC50 (Cytochrome P450 2C9): inconclusive

O=C(N/N=C/c1cc(Cl)ccc1O)c1ccccc1Br
EC50 (cells [1]): 14.7 µM (active)
EC50 (cells [2]): > 350 µM (not active)
AC50 (INS1): 2.29 µM (active)
IC50 (Aminopeptidase N): 30.8 µM (active)

Cn1c(=O)c2cc(S(=O)(=O)NCCC(=O)Nc3ccc(Cl)cc3)ccc2n(C)c1=O
AC50 (Cytochrome P450 2C9): inconclusive

FC(F)(F)c1cnc(Nc2ccc(N3CCOCC3)cc2)c(Cl)c1
IC50 (Bcl-2-like protein 10): 76.3 µM (inactive)

O=C(N/C(=C/c1ccco1)C(=O)N1CCCCCC1)c1cccs1
AC50 (Cytochrome P450 2C9): inconclusive
AC50 (Cytochrome P450 1A2): 17.8 µM (inconclusive)
AC50 (Cytochrome P450 2C19): 3.98 µM (inconclusive)

O=C(Nc1ccccc1C(=O)N/N=C/c1ccco1)c1ccccc1Cl
IC50 [3]: > 80 µM (inactive)

O=C(CSc1nc2cc(Cl)ccc2s1)c1ccco1
IC50 [3]: > 80 µM (inactive)

C[C@H]1CC[C@H]2C(=O)N[C@H](Cc3ccccc3)C(=O)N2[C@@H]1c1ccccc1
AC50 (Cytochrome P450 2C9): inconclusive
AC50 (Cytochrome P450 2C19): 3.98 µM (inconclusive)

CCOC(=O)C1(CC2CC2)CCN(Cc2ccc3cccc(F)c3n2)CC1
EC50 [4]: 0.841 µM (active)
EC50 [5]: 2.66 µM (active)

Cc1ccc(C(=O)Nc2nnc(S(=O)(=O)N3CCC(C)CC3)s2)cc1
IC50 [3]: > 80 µM (inactive)

O=C(Nc1ccccc1)N1CC2(CCN(C(=O)c3cc(C(F)(F)F)cc(C(F)(F)F)c3)CC2)C1
AC50 (Cytochrome P450 2C9): inconclusive

CC1=CN2C(=N)/C(=C/c3cc(Cl)c(O)c(Cl)c3)C(=O)N=C2S1
IC50 (Aminopeptidase N): 42 µM (active)

O=C(NCCCN1CCN(Cc2ccccc2)CC1)C1CCN(c2nnc(-n3cccc3)s2)CC1
IC50 (Bcl-2-like protein 10): 62.8 µM (inactive)

O=C(O)CCc1ccc(-c2cccs2)n1CCC(=O)O
IC50 (Bcl-2-like protein 10): 77 µM (inactive)

COc1ccc(S(=O)(=O)N2CCCC2C(=O)Nc2nnc(-c3cccnc3)s2)cc1 (stereo unspecified)
IC50 (Bcl-2-like protein 10): > 100 µM (inactive)

Cc1cc(NC(=O)c2cnn3cccnc23)nn1CC(=O)Nc1cccnc1
EC50 [5]: 4.22 µM (active)

OCCC1CN(Cc2ccccc2-c2ccco2)CCN1Cc1ccccc1 (stereo unspecified)
EC50 [5]: 5.31 µM (active)

Cc1ccc(S(=O)(=O)NC2=NC(=O)/C(=C\c3cc(Br)cc(Br)c3O)S2)cc1
EC50 [6]: > 38 µM (not active)
AC50 [7]: 6.67 µM (active)
EC50 [8]: 9.99 µM (active)
EC50 [5]: 10.6 µM (active)

COc1cc(/C=N/NC(=O)[C@H](Cc2c[nH]c3ccccc23)NC(=O)OCC(C)C)cc([N+](=O)[O-])c1O
IC50 (Aminopeptidase N): 12.2 µM (active)

Cc1cccc(OCCOCCN2CCNCC2)c1C
EC50 [5]: 1.19 µM (active)
